Key:
P300 = molecular target: T1, P300 (Homo sapiens, UniProt Q09472); experiment: P300 degradation in 22Rv1 cells (5 h); type: cell-based; details: 22Rv1 cells, 5 h; for Dmax: read-out: P300 Degradation (22Rv1, 5 h) DCmax
T1 construct: endogenous in cells; host or cells: 22Rv1 (ATCC CRL-2505) human prostate cancer cells
From the text: (§1) Biological Assays. […] Cells with 3-8 passages after purchase were used in experiments.

22Rv1 cells = experiment: Cell growth inhibition assay (CellTiter-Glo) in 22Rv1; type: cell-based, human; details: Homo sapiens, 22Rv1, 96 h, 22Rv1 cells, 96 h incubation; read-out: Cell Growth Inhibition (IC50) 22Rv1
Summary of the method: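 22Rv1 prostate cancer cells (passages 3-8, DMEM with 10% FBS) were seeded at 4000 cells/well with compound, 3-fold dilutions from 10 μM final. After 96 h at 37° C and 5% CO2, growth was read by CellTiter-Glo 2.0 luminescence.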

CBP = molecular target: T2, CBP (Homo sapiens, UniProt Q92793); experiment: CBP degradation in 22Rv1 cells (5 h); type: cell-based; details: 22Rv1 cells, 5 h; for Dmax: 22Rv1, 5 h, read-out: CBP Degradation (22Rv1, 5 h) DCmax
T2 construct: endogenous in cells; host or cells: 22Rv1 (ATCC CRL-2505) human prostate cancer cells
T2 sequence (Q92793 whole entry): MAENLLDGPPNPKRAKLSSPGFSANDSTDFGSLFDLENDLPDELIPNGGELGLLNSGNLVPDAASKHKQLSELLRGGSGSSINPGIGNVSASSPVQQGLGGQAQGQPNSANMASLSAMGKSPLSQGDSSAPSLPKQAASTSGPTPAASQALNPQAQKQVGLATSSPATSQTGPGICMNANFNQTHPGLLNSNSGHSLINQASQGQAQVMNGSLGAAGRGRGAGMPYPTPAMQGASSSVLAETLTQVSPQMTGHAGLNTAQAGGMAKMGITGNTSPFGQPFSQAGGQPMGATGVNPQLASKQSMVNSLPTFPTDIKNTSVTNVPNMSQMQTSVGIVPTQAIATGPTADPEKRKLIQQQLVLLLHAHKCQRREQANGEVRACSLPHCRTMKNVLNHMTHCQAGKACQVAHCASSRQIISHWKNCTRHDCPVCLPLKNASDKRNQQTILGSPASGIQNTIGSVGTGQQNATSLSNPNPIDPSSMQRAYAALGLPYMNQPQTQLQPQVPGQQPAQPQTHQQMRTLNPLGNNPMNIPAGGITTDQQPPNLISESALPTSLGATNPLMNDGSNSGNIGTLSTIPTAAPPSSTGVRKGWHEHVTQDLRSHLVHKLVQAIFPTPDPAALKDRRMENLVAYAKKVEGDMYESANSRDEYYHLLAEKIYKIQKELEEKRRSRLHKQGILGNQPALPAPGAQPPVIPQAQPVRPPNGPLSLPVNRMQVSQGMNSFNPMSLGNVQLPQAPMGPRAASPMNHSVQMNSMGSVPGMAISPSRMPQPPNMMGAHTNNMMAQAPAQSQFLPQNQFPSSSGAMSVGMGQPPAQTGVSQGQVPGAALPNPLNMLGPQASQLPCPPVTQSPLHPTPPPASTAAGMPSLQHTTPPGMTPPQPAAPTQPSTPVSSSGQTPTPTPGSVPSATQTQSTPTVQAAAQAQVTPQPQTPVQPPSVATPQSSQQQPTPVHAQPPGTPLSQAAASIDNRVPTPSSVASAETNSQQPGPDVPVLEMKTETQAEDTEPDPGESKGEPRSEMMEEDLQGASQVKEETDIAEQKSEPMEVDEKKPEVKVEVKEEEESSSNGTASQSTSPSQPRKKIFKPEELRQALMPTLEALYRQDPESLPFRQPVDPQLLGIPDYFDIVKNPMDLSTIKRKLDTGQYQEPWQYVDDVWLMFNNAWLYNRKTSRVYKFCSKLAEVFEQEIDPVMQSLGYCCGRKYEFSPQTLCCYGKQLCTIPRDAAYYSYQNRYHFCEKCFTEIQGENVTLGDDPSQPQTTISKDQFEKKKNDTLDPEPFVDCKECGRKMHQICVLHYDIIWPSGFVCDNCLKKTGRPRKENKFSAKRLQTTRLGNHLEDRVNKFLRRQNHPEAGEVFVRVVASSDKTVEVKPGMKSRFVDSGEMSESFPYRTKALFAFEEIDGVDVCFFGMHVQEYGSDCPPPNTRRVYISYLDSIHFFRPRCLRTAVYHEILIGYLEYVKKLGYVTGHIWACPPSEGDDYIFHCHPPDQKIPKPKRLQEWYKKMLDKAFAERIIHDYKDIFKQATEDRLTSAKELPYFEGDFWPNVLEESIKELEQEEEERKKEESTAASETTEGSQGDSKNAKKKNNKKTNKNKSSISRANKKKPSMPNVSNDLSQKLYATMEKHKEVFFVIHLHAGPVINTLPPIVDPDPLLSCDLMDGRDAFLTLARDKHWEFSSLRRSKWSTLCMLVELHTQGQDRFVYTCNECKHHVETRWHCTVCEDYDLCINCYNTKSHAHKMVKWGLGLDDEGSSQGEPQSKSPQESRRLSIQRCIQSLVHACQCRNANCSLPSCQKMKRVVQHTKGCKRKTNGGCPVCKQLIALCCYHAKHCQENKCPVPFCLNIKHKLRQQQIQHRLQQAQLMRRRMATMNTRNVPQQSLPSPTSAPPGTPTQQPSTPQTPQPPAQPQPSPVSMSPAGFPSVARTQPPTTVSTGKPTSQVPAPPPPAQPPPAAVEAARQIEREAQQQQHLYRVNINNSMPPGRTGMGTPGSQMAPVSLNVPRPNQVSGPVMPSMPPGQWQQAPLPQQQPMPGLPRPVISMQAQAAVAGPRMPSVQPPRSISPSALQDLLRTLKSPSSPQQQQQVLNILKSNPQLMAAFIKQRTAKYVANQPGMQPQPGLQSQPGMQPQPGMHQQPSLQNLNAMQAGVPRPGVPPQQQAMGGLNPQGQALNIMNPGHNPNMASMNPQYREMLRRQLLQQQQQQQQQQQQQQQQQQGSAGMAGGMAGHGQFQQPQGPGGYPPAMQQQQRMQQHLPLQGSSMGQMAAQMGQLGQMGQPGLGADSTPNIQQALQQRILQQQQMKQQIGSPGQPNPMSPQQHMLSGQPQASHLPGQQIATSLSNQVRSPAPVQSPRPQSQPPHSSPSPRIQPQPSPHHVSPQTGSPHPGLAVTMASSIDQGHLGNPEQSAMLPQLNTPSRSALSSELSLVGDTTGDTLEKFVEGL
From the text: as §1

HL60 = experiment: Cell growth inhibition in HL60; type: cell-based; details: Homo sapiens, HL-60, HL60 cells; read-out: Cell Growth Inhibition (IC50) HL60

T1 sequence (Q09472 whole entry): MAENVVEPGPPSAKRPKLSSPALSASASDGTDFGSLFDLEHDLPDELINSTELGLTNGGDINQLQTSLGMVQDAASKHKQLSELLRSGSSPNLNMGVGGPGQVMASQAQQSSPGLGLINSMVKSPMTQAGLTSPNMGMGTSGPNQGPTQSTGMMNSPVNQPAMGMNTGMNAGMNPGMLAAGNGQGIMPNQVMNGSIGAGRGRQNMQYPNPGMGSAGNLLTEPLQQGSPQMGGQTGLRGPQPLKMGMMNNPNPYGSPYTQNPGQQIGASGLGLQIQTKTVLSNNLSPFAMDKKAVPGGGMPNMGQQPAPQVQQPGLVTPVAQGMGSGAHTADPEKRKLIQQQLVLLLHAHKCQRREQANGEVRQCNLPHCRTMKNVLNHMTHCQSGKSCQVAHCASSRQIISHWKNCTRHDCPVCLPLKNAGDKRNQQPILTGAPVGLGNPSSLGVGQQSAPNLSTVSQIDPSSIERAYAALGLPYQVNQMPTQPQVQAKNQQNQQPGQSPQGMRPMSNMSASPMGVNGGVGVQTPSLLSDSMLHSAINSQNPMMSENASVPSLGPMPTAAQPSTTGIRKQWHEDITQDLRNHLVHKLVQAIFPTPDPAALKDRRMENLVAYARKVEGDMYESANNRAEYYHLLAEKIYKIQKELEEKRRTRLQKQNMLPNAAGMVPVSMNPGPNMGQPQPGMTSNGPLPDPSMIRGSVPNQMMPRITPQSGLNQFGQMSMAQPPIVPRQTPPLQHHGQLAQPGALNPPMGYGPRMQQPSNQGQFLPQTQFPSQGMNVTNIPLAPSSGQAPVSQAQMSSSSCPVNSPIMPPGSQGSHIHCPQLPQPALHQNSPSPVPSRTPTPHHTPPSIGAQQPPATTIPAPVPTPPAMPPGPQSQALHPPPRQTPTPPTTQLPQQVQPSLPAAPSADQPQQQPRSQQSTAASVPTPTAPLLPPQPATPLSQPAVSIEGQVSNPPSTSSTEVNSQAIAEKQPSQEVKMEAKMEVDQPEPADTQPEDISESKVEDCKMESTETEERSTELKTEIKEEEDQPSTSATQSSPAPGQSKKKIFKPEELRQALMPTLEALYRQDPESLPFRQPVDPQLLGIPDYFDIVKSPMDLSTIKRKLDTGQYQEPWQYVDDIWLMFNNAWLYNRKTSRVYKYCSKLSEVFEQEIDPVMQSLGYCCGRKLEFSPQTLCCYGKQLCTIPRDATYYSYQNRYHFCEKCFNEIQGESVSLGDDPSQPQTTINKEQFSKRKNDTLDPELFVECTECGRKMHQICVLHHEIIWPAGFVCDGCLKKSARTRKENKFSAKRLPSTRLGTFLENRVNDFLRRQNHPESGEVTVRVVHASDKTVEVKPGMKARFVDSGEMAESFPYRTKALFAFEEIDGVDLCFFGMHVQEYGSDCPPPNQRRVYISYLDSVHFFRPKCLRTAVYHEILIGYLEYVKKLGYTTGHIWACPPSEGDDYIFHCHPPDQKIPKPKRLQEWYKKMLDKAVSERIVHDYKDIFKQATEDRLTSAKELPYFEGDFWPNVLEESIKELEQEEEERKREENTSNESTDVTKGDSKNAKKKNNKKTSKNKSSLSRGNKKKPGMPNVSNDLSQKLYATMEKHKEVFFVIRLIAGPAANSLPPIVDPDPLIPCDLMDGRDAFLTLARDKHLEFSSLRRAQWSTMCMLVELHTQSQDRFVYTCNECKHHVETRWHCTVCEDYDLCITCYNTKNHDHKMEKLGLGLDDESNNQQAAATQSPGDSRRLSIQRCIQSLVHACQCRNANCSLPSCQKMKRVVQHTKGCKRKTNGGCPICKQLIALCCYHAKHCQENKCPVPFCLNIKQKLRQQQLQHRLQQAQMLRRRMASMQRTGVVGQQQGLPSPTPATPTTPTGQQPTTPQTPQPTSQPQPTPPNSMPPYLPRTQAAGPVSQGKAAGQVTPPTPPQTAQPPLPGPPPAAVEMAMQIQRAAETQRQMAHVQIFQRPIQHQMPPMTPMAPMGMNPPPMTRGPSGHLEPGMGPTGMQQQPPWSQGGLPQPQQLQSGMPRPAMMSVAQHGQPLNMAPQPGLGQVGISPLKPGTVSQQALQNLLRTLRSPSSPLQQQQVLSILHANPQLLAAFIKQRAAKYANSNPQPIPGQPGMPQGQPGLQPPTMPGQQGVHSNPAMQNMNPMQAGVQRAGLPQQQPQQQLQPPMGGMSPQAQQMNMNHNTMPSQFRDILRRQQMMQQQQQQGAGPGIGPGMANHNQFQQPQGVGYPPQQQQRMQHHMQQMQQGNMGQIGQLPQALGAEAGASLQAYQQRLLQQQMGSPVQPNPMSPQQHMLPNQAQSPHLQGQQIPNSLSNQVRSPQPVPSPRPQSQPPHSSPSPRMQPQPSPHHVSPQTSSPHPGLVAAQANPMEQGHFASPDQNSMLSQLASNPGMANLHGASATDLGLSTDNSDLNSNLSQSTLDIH

DC50 (P300) [µM] | Dmax (P300) [%] | IC50 (22Rv1 cells) [µM] | Dmax (CBP) [%] | DC50 (CBP) [µM] | IC50 (HL60) [µM] | SMILES
> 1 | < 50 | > 10 | < 50 | > 1 | > 10 | Cc1noc(C)c1-c1ccc2c(c1)nc([C@@H]1CCCC(=O)N1c1ccc(F)c(F)c1)n2C1CCN(C(=O)CN2CCc3cc4c(cc3C2)C(=O)N(C2CCC(=O)NC2=O)C4=O)CC1 (stereo partly drawn) [CP-063, 6-(2-(4-(2-((S)-1-(3,4-difluorophenyl)-6-oxopiperidin-2-yl)-5-(3,5-dimethylisoxazol-4-yl)-1H-benzo[d]imidazol-1-yl)piperidin-1-yl)-2-oxoethyl)-2-(2,6-dioxopiperidin-3-yl)-5,6,7,8-tetrahydro-1H-pyrrolo[3,4-g]isoquinoline-1,3(2H)-dione]
> 1 | < 50 | > 10 | < 50 | > 1 | > 10 | Cc1noc(C)c1-c1ccc2c(c1)nc([C@@H]1CCCC(=O)N1c1ccc(F)c(F)c1)n2C1CCN(C(=O)CN2CCc3cc4c(cc3CC2)C(=O)N(C2CCC(=O)NC2=O)C4=O)CC1 (stereo partly drawn) [CP-064, 7-(2-(4-(2-((S)-1-(3,4-difluorophenyl)-6-oxopiperidin-2-yl)-5-(3,5-dimethylisoxazol-4-yl)-1H-benzo[d]imidazol-1-yl)piperidin-1-yl)-2-oxoethyl)-2-(2,6-dioxopiperidin-3-yl)-6,7,8,9-tetrahydroazepino[4,5-f]isoindole-1,3(2H,5H)-dione]
> 1 | < 50 | > 10 | < 50 | > 1 | > 10 | Cc1noc(C)c1-c1ccc2c(c1)nc([C@@H]1CCCC(=O)N1c1ccc(F)c(F)c1)n2C1CCN(C(=O)CCN2Cc3cc4c(cc3C2)C(=O)N(C2CCC(=O)NC2=O)C4=O)CC1 (stereo partly drawn) [CP-065, 6-(3-(4-(2-((S)-1-(3,4-difluorophenyl)-6-oxopiperidin-2-yl)-5-(3,5-dimethylisoxazol-4-yl)-1H-benzo[d]imidazol-1-yl)piperidin-1-yl)-3-oxopropyl)-2-(2,6-dioxopiperidin-3-yl)-6,7-dihydropyrrolo[3,4-f]isoindole-1,3(2H,5H)-dione]
> 1 | < 50 | > 10 | < 50 | > 1 | > 10 | Cc1noc(C)c1-c1ccc2c(c1)nc([C@@H]1CCCC(=O)N1c1ccc(F)c(F)c1)n2C1CCN(C(=O)CCCN2Cc3cc4c(cc3C2)C(=O)N(C2CCC(=O)NC2=O)C4=O)CC1 (stereo partly drawn) [CP-066, 6-(4-(4-(2-((S)-1-(3,4-difluorophenyl)-6-oxopiperidin-2-yl)-5-(3,5-dimethylisoxazol-4-yl)-1H-benzo[d]imidazol-1-yl)piperidin-1-yl)-4-oxobutyl)-2-(2,6-dioxopiperidin-3-yl)-6,7-dihydropyrrolo[3,4-f]isoindole-1,3(2H,5H)-dione]
< 0.01 | > 90 | < 1 | > 90 | < 0.01 | < 1 | CC(=O)N1CCc2c(c(-c3cccc4ccccc34)nn2C2CCN(C(=O)CN3Cc4cc5c(cc4C3)C(=O)N(C3CCC(=O)NC3=O)C5=O)CC2)C1 (stereo not drawn) [CP-075, 6-(2-(4-(5-acetyl-3-(naphthalen-1-yl)-4,5,6,7-tetrahydro-1H-pyrazolo[4,3-c]pyridin-1-yl)piperidin-1-yl)-2-oxoethyl)-2-(2,6-dioxopiperidin-3-yl)-6,7-dihydropyrrolo[3,4-f]isoindole-1,3(2H,5H)-dione]
< 0.01 | > 70 | > 10 | > 90 | < 0.01 | < 1 | CC(=O)N1CCc2c(c(-c3cccc4ccccc34)nn2C2CCN(C(=O)CN3CCc4cc5c(cc4C3)C(=O)N(C3CCC(=O)NC3=O)C5=O)CC2)C1 (stereo not drawn) [CP-076, 6-(2-(4-(5-acetyl-3-(naphthalen-1-yl)-4,5,6,7-tetrahydro-1H-pyrazolo[4,3-c]pyridin-1-yl)piperidin-1-yl)-2-oxoethyl)-2-(2,6-dioxopiperidin-3-yl)-5,6,7,8-tetrahydro-1H-pyrrolo[3,4-g]isoquinoline-1,3(2H)-dione]

— patent publication US20240150360A1 (THE REGENTS OF THE UNIVERSITY OF MICHIGAN, priority 2021, published 2024)
